Publication PMC5862592, “CDK8/19 inhibition induces premature G1/S transition and ATR-dependent cell death in prostate cancer cells” (Oncotarget, 2018)
Like-named read-outs stand apart in the source and are kept apart here.

How the values were obtained:
Assay in all cases: biochemical
Set-up in all cases: KINOMEscan active site-directed competition binding assay (DiscoveRx), 456 kinases, per cent of control at 300 nM
Settings in all cases: read-out: Percent of Control (%)
AKT2 = AKT2 (Homo sapiens, UniProt P31751)
Procedure, shortened: (§1)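 Single-concentration selectivity screen: compound 300 nmol/L; 456-kinase panel; active-site-directed competition binding read-out.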

ABL2 = ABL2 (Homo sapiens, UniProt P42684)
Procedure, shortened: as §1

FLT4 = FLT4 (Homo sapiens, UniProt P35916)
Procedure, shortened: as §1

NLK = NLK (Homo sapiens, UniProt Q9UBE8)
Procedure, shortened: as §1

ERK2 = molecular target: T1, ERK2 (Homo sapiens, UniProt P28482)
T1 construct: gene MAPK1
Procedure, shortened: as §1

SRPK2 = SRPK2 (Homo sapiens, UniProt P78362)
Procedure, shortened: as §1

MYLK = MYLK (Homo sapiens, UniProt Q15746)
Procedure, shortened: as §1

CSF1R = CSF1R (Homo sapiens, UniProt P07333)
Procedure, shortened: as §1

KIT(L576P) = KIT(L576P) (Homo sapiens, UniProt P10721, L576P)
Procedure, shortened: as §1

PIK3CA(H1047Y) = PIK3CA(H1047Y) (Homo sapiens, UniProt P42336, H1047Y)
Procedure, shortened: as §1

AXL = AXL (Homo sapiens, UniProt P30530)
Procedure, shortened: as §1

MARK4 = MARK4 (Homo sapiens, UniProt Q96L34)
Procedure, shortened: as §1

FGFR1 = FGFR1 (Homo sapiens, UniProt P11362)
Procedure, shortened: as §1

MINK = molecular target: T2, MINK (Homo sapiens, UniProt Q8N4C8)
T2 construct: gene MINK1
Procedure, shortened: as §1

BMPR1B = BMPR1B (Homo sapiens, UniProt O00238)
Procedure, shortened: as §1

FER = FER (Homo sapiens, UniProt P16591)
Procedure, shortened: as §1

MST1R = MST1R (Homo sapiens, UniProt Q04912)
Procedure, shortened: as §1

AURKA = AURKA (Homo sapiens, UniProt O14965)
Procedure, shortened: as §1

YANK2 = molecular target: T3, YANK2 (Homo sapiens, UniProt Q9NY57)
T3 construct: gene STK32B
Procedure, shortened: as §1

[1] = molecular target: T4, RPS6KA4(Kin.Dom.2-C-terminal) (Homo sapiens, UniProt O75676)
T4 construct: Kin.Dom.2-C-terminal
Procedure, shortened: as §1

EIF2AK1 = EIF2AK1 (Homo sapiens, UniProt Q9BQI3)
Procedure, shortened: as §1

CDK8 = CDK8 (Homo sapiens, UniProt P49336)
Procedure, shortened: as §1

AURKA, sequence (O14965 whole entry): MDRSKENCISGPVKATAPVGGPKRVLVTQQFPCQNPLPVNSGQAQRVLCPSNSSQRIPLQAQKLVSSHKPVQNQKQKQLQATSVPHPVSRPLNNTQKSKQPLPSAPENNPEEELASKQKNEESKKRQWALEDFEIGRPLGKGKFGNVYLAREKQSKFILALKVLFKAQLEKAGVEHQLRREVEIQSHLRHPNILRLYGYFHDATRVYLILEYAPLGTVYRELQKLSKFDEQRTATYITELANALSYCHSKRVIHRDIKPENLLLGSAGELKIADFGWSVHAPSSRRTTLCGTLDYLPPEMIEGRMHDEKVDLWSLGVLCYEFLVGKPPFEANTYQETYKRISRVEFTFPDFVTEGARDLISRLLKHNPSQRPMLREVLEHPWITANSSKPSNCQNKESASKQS
NLK, sequence (Q9UBE8 whole entry): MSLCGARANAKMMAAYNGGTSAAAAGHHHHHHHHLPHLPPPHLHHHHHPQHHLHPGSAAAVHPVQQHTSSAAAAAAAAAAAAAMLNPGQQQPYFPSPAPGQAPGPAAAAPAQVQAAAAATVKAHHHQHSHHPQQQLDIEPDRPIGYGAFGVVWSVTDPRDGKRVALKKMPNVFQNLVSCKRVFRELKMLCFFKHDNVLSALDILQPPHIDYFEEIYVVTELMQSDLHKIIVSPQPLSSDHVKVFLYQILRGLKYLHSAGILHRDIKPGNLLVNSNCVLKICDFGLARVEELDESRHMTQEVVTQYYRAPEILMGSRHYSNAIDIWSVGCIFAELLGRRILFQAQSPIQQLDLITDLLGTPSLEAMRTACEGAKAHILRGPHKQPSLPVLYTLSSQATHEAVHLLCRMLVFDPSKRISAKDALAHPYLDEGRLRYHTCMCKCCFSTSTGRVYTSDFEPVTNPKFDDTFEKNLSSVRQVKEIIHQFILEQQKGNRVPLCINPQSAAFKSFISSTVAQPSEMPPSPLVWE
MST1R, sequence (Q04912 whole entry): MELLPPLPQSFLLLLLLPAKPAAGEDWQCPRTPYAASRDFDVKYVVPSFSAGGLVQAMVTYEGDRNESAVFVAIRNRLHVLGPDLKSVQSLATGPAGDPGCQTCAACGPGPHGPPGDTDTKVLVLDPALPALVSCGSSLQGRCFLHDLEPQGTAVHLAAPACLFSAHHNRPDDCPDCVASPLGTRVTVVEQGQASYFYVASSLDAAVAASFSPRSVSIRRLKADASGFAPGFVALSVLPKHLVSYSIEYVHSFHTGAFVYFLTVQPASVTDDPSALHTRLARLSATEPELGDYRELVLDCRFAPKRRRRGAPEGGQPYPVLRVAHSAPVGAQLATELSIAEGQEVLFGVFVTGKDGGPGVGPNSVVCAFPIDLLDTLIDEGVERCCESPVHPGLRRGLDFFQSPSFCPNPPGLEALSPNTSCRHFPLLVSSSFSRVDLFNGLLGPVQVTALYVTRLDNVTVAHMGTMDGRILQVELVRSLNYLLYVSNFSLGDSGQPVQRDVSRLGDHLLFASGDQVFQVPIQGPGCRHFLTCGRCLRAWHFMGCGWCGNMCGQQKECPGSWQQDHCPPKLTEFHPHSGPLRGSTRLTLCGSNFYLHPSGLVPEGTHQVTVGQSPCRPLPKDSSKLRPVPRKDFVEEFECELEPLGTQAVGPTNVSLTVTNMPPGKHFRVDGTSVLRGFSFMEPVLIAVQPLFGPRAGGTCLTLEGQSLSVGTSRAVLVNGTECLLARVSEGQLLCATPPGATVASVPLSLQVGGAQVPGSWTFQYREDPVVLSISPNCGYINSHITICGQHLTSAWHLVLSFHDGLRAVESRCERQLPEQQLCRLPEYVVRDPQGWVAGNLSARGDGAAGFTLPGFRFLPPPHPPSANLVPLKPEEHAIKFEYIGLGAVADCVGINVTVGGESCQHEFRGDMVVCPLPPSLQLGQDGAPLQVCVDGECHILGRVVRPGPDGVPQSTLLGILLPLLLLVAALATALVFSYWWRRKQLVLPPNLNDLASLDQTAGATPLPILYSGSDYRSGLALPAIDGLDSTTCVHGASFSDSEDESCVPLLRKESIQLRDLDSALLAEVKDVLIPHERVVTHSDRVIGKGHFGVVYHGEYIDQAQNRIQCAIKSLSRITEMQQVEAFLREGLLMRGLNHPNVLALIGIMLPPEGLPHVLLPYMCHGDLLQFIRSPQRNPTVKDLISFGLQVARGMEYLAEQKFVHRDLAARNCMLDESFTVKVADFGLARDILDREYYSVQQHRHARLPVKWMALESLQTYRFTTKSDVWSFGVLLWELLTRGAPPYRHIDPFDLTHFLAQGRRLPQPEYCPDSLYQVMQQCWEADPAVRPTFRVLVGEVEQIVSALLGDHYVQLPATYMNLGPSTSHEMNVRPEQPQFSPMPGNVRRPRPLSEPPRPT
MYLK, sequence (Q15746 whole entry): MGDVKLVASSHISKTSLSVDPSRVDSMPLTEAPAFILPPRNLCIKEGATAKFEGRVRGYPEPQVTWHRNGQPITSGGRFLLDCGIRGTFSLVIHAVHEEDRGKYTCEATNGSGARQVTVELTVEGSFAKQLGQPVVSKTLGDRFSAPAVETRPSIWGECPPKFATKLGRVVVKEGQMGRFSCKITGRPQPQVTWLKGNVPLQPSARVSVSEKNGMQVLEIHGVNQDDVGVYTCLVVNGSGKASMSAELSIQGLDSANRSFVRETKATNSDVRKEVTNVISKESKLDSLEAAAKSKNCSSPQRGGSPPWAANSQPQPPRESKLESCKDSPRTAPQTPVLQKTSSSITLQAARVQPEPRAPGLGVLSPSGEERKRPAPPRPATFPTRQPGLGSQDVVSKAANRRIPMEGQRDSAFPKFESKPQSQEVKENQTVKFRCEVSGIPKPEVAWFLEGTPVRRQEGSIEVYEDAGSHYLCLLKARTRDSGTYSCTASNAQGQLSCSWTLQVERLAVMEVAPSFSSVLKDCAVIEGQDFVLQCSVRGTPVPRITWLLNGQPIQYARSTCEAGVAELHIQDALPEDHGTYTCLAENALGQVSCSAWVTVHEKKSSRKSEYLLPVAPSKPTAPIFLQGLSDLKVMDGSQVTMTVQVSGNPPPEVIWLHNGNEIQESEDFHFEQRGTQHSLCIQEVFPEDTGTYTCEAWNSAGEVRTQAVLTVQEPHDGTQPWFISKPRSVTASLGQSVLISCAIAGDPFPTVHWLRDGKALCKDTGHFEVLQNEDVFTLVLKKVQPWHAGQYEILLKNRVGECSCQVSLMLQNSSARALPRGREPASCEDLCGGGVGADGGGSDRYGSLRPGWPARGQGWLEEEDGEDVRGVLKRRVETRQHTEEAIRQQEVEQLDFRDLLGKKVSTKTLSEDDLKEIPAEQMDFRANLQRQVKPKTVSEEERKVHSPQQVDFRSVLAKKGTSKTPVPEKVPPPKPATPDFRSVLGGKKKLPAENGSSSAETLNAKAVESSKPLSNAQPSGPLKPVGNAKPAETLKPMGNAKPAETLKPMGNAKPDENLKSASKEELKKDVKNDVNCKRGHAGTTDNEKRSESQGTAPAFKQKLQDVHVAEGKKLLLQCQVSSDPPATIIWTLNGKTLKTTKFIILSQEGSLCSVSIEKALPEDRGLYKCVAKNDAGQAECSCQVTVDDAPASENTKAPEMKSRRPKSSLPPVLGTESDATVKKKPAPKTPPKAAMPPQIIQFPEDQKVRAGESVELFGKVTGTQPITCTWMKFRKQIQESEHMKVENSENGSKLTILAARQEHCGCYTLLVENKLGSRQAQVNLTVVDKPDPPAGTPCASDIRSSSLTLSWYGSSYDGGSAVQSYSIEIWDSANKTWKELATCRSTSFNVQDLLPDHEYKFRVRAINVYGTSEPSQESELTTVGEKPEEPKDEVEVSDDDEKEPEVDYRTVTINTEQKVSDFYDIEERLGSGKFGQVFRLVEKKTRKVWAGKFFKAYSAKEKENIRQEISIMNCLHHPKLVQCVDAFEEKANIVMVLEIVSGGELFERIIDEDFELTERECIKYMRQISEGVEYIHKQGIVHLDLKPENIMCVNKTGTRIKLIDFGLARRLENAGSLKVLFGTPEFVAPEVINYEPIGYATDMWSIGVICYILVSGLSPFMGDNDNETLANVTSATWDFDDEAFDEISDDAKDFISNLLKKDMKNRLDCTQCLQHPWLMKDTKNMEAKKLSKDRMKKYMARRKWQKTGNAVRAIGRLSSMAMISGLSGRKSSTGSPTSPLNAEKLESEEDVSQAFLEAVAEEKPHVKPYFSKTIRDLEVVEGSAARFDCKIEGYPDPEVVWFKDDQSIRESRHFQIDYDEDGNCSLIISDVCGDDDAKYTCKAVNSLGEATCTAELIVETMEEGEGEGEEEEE
MARK4, sequence (Q96L34 whole entry): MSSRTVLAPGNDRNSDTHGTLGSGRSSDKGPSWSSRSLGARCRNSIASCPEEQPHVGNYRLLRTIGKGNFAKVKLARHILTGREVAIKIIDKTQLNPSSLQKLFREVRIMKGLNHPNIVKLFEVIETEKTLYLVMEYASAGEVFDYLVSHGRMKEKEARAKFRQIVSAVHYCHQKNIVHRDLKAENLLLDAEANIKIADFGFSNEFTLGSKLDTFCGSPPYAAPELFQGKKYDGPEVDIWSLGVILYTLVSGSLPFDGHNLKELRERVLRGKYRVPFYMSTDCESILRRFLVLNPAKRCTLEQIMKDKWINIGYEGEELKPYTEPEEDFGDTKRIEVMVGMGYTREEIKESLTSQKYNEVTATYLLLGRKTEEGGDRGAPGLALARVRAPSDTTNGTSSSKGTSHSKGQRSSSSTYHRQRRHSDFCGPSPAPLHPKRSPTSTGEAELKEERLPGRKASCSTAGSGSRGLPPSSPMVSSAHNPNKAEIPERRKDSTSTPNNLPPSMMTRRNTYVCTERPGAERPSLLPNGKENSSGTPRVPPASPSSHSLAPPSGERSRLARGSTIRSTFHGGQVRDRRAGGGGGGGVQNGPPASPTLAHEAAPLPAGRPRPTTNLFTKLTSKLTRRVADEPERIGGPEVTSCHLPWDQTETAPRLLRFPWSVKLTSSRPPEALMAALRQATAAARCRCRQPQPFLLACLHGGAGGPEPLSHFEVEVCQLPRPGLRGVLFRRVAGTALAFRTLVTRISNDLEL

Cc1ncccc1Oc1sc(C(N)=O)c2c1-c1c(cnn1C)CC2 [T-474, 1-methyl-8-((2-methylpyridin-3-yl)oxy)-4,5-dihydro-1H-thieno[3,4-g]indazole-6-carboxamide]
remaining binding at 0.3 µM (AKT2): 100% | remaining binding at 0.3 µM (ABL2): 100% | remaining binding at 0.3 µM (FLT4): 83% | remaining binding at 0.3 µM (NLK): 100% | remaining binding at 0.3 µM (ERK2): 85% | remaining binding at 0.3 µM (SRPK2): 100% | remaining binding at 0.3 µM (MYLK): 100% | remaining binding at 0.3 µM (CSF1R): 100% | remaining binding at 0.3 µM (KIT(L576P)): 100% | remaining binding at 0.3 µM (PIK3CA(H1047Y)): 54% | remaining binding at 0.3 µM (AXL): 83% | remaining binding at 0.3 µM (MARK4): 83% | remaining binding at 0.3 µM (FGFR1): 95% | remaining binding at 0.3 µM (MINK): 100% | remaining binding at 0.3 µM (BMPR1B): 100% | remaining binding at 0.3 µM (FER): 90% | remaining binding at 0.3 µM (MST1R): 95% | remaining binding at 0.3 µM (AURKA): 100% | remaining binding at 0.3 µM (YANK2): 100% | remaining binding at 0.3 µM [1]: 95% | remaining binding at 0.3 µM (EIF2AK1): 100% | remaining binding at 0.3 µM (CDK8): 9.8%

O=C(/C=C/c1cnccc1-c1ccc(F)cc1)Nc1ccc(CCc2nnco2)cc1 [T-418, (2E)-3-(4-(4-fluorophenyl)pyridin-3-yl)-N-(4-(2-(1,3,4-oxadiazol-2-yl)ethyl)phenyl)acrylamide]
remaining binding at 0.3 µM (AKT2; sheet T-418): 100% | remaining binding at 0.3 µM (ABL2; sheet T-418): 90% | remaining binding at 0.3 µM (FLT4; sheet T-418): 84% | remaining binding at 0.3 µM (NLK; sheet T-418): 98% | remaining binding at 0.3 µM (ERK2; sheet T-418): 79% | remaining binding at 0.3 µM (SRPK2; sheet T-418): 50% | remaining binding at 0.3 µM (MYLK; sheet T-418): 100% | remaining binding at 0.3 µM (CSF1R; sheet T-418): 81% | remaining binding at 0.3 µM (KIT(L576P); sheet T-418): 100% | remaining binding at 0.3 µM (PIK3CA(H1047Y); sheet T-418): 73% | remaining binding at 0.3 µM (AXL; sheet T-418): 73% | remaining binding at 0.3 µM (MARK4; sheet T-418): 98% | remaining binding at 0.3 µM (FGFR1; sheet T-418): 100% | remaining binding at 0.3 µM (MINK; sheet T-418): 80% | remaining binding at 0.3 µM (BMPR1B; sheet T-418): 100% | remaining binding at 0.3 µM (FER; sheet T-418): 98% | remaining binding at 0.3 µM (MST1R; sheet T-418): 100% | remaining binding at 0.3 µM (AURKA; sheet T-418): 100% | remaining binding at 0.3 µM (YANK2; sheet T-418): 78% | remaining binding at 0.3 µM ([1]; sheet T-418): 86% | remaining binding at 0.3 µM (EIF2AK1; sheet T-418): 100% | remaining binding at 0.3 µM (CDK8; sheet T-418): 48%
